Experimental data from the NIST ThermoML archive (doi:10.1021/je201334p).
± gives the expanded uncertainty stated by the source.

Assays:
[1] = refractive index (Na D-line) (dimensionless); xn = mol fraction of the nth substance listed; settings: 101 kPa, Liquid, Standard Abbe refractometry
[2] = xn = mol fraction of the nth substance listed; settings: 288.15 K, 101 kPa, Liquid; for speed of sound: Sing-around technique in a fixed-path interferometer; for mass density: Vibrating tube method

CCCC[N+]1(C)CCCC1.N#CN=C=[N-] [1-butyl-1-methylpyrrolidinium dicyanamide] + O
refractive index, [1]
Settings	288.15 K	298.15 K	308.15 K
x2 = 0	1.49968 ± 0.00063	1.49681 ± 0.00063	1.49392 ± 0.00064
x2 = 0.096	1.49811 ± 0.00061	1.49519 ± 0.00062	1.49222 ± 0.00062
x2 = 0.1277	1.49752 ± 0.00061	1.49459 ± 0.00061	1.49162 ± 0.00061
x2 = 0.2116	1.4957 ± 0.00058	1.49278 ± 0.00059	1.48982 ± 0.0006
x2 = 0.3077	1.49322 ± 0.00056	1.49032 ± 0.00058	1.4871 ± 0.00059
x2 = 0.3942	1.49044 ± 0.00054	1.48751 ± 0.00056	1.48432 ± 0.00059
x2 = 0.4952	1.48621 ± 0.00054	1.48329 ± 0.00055	1.47987 ± 0.00057
x2 = 0.5023	1.4858 ± 0.00054	1.48284 ± 0.00055	1.47973 ± 0.00055
x2 = 0.6047	1.4797 ± 0.00053	1.47674 ± 0.00054	1.47345 ± 0.00055
x2 = 0.6137	1.47901 ± 0.00052	1.4761 ± 0.00053	1.47289 ± 0.00054
x2 = 0.7061	1.47041 ± 0.00051	1.46748 ± 0.00052	1.46424 ± 0.00053
x2 = 0.7177	1.46905 ± 0.00051	1.46612 ± 0.00052	1.46281 ± 0.00054
x2 = 0.7571	1.46368 ± 0.00046	1.46078 ± 0.00052	1.45746 ± 0.00058
x2 = 0.8208	1.45158 ± 0.00046	1.4487 ± 0.0005	1.44577 ± 0.00057
x2 = 0.8468	1.44481 ± 0.00045	1.44172 ± 0.00051	1.43884 ± 0.00056
x2 = 0.9034	1.42419 ± 0.00043	1.42145 ± 0.00048	1.41909 ± 0.00077
x2 = 0.904	1.42386 ± 0.00043	1.42118 ± 0.00048	1.41891 ± 0.00077
x2 = 0.9492	1.39597 ± 0.00047	1.39362 ± 0.00046	1.39175 ± 0.00045
x2 = 0.9507	1.39472 ± 0.00046	1.39249 ± 0.00045	1.39055 ± 0.00045
x2 = 0.9517	1.3939 ± 0.00046	1.39161 ± 0.00045	1.3897 ± 0.00045

[2]
Settings	mass density [kg/m3]	speed of sound [m/s]
x2 = 0	1019.17 ± 1.1	1836.9 ± 2.3
x2 = 0.096	1018.92 ± 0.94	1836.1 ± 2.1
x2 = 0.1277	1018.84 ± 0.88	1835.8 ± 2.1
x2 = 0.2116	1018.6 ± 0.73	1835.3 ± 2
x2 = 0.3077	1018.31 ± 0.58	1835.6 ± 1.8
x2 = 0.3942	1018.08 ± 0.47	1834.9 ± 1.7
x2 = 0.4952	1017.78 ± 0.35	1835.1 ± 1.6
x2 = 0.5023	1017.76 ± 0.34	1835.2 ± 1.6
x2 = 0.6047	1017.45 ± 0.24	1835.9 ± 1.4
x2 = 0.6137	1017.41 ± 0.23	1835.7 ± 1.4
x2 = 0.7061	–	1832.9 ± 1.3
x2 = 0.7177	–	1832 ± 1.3
x2 = 0.7571	–	1827.3 ± 1.3
x2 = 0.8208	–	1810.9 ± 1.2
x2 = 0.8468	–	1798.5 ± 1.2
x2 = 0.9034	–	1750.6 ± 1.1
x2 = 0.904	–	1749.8 ± 1.1
x2 = 0.9492	–	1671.5 ± 1.1
x2 = 0.9507	–	1667.9 ± 1.1
x2 = 0.9517	–	1665.4 ± 1.1
